From patent US9216991B2 (Ares Trading S.A., priority 2012, dated 2015)
Counter-ions that a name gives are not always drawn.

Target: T1, IRAK4 (Homo sapiens, UniProt Q9NWZ3)
T1 construct: His (N); TEV cleavage site (N)
T1 sequence (Q9NWZ3 1-460): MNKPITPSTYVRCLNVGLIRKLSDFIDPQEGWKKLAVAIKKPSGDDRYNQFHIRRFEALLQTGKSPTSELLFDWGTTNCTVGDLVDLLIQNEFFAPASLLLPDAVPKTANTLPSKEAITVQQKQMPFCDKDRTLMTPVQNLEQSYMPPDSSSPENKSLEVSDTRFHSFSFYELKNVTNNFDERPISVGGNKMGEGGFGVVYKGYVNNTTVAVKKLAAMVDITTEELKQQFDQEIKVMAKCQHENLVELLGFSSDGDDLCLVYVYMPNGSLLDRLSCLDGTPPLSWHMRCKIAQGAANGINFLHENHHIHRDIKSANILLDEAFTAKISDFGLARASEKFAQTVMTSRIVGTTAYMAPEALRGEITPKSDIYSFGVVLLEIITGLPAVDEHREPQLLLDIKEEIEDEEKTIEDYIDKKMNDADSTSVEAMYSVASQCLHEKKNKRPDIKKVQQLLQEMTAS
Assay: IRAK4 Enzymatic Assay
Format: biochemical
Conditions: His-TEV-IRAK4 20 ng/well, ATP 2 μM, STK1-biotin peptide 300 nM, 3 hours at 30° C., FlashPlate radioactivity
Protocol: IRAK4 is a human purified recombinant enzyme (His-TEV-IRAK1 (194-712)
IRAK4 hydrolyses ATP, autophosphorylates and phosphorylates a Serine/Threonine generic peptidic substrate (STK: 61ST1BLC from CisBio International based in Bagnols/Cèze FR).
Measurement of IRAK-4 inhibition is performed in streptavidin coated 384 well FlashPlate (PerkinElmer #SMP410A). His-TEV-IRAK4 (20 ng/well), ATP (2 μM, [^33P]ATP 0.25 μCi/well), STK1-biotin peptide (300 nM) and compounds in DMSO (range of concentrations from 20 μM to 1nM) or controls (2% DMSO) are incubated for 3 hours at 30° C. in assay buffer: Hepes pH7.0 50 mM, Fatty acid-free BSA 0.1%, Dithiothreitol DTT 2 mM, MgCl2 10 mM, EGTA 0.5 mM, Tween-20 0.01%, MnCl2 5 mM.
Kinase reaction is stopped by addition of EDTA. Supernatant is discarded, plates are washed three times with 150 mM NaCl and radioactivity is then measured in a Microbeta Trilux reader.

Compound	IC50
Cn1cc(-c2cccc(-c3ncc(-c4cnn(CCC5CCOC5=O)c4)cn3)c2)cn1 (stereo not shown) [Example 132, 3-[2-(4-{2-[3-(1-Methyl-1H-pyrazol-4-yl)-phenyl]-pyrimidin-5-yl}-pyrazol-1-yl)-ethyl]dihydro-furan-2-one]	100 to 1000 nM
Cc1cc(-c2cccc(-c3ncc(-c4cnn([C@H]5CC[C@H](O)CC5)c4)cn3)c2)cnn1 [Example 247, trans-4-(4-{2-[3-(6-Methyl-pyridazin-4-yl)-phenyl]-pyrimidin-5-yl}-pyrazol-1-yl)-cyclohexanol]	100 to 1000 nM
Cn1cc(-c2cccc(-c3ncc(-c4cnn([C@H]5CC[C@H](O)CC5)c4)cn3)c2)cn1 [Example 182, Trans-4-(4-{2-[3-(1-Methyl-1H-pyrazol-4-yl)-phenyl]-pyrimidin-5-yl}-pyrazol-1-yl)-cyclohexanol]	< 100 nM
O=C(Cn1cc(-c2cnc(-c3cccc(-c4cnco4)c3)nc2)cn1)N1CCOCC1 [Example 78, 1-Morpholin-4-yl-2-{4-[2-(3-oxazol-5-yl-phenyl)-pyrimidin-5-yl]-pyrazol-1-yl}-ethanone]	100 to 1000 nM
Cn1cc(-c2cccc(-c3ncc(-c4cnn(C5C[C@H]6CC[C@@H](C5)N6)c4)cn3)c2)cn1 (stereo partly drawn) [Example 110, (1R,5S)-3-(4-{2-[3-(1-Methyl-1H-pyrazol-4-yl)-phenyl]-pyrimidin-5-yl}-pyrazol-1-yl)-8-aza-bicyclo[3.2.1]octane]	100 to 1000 nM
CC(C(=O)N1CCOCC1)n1cc(-c2cnc(-c3cccc(-c4cnn(C)c4)c3)nc2)cn1 (stereo not shown) [Example 103, 2-(4-{2-[3-(1-Methyl-1H-pyrazol-4-yl)-phenyl]-pyrimidin-5-yl}-pyrazol-1-yl)-1-morpholin-4-yl-propan-1-one]	1000 to 5000 nM
Cn1cc(-c2cccc(-c3ncc(-c4cnn([C@H]5CC[C@H](C(=O)N6CC[C@H](O)C6)CC5)c4)cn3)c2)cn1 [Example 205, trans-((S)-3-Hydroxy-pyrrolidin-1-yl)-[4-(4-{2-[3-(1-methyl-1H-pyrazol-4-yl)-phenyl]-pyrimidin-5-yl}-pyrazol-1-yl)-cyclohexyl]-methanone]	< 100 nM
Cn1cc(-c2cccc(-c3ncc(-c4cnn(C5CCN(C(=O)C6CC(O)C6)CC5)c4)cn3)c2)cn1 (stereo not shown) [Example 120, (3-Hydroxy-cyclobutyl)-[4-(4-{2-[3-(1-methyl-1H-pyrazol-4-yl)-phenyl]-pyrimidin-5-yl}-pyrazol-1-yl)-piperidin-1-yl]-methanone]	100 to 1000 nM
c1cc(-c2cn[nH]c2)cc(-c2ncc(-c3cnn(C4CCNCC4)c3)cn2)c1 [Example 18, 5-(1-Piperidin-4-yl-1H-pyrazol-4-yl)-2-[3-(1H-pyrazol-4-yl)-phenyl]-pyrimidine hydrochloride]	< 100 nM
Cn1cc(-c2cccc(-c3ncc(-c4cnn(C5CCN(C6COC6)CC5)c4)cn3)c2)cn1 [Example 28, 2-[3-(1-Methyl-1H-pyrazol-4-yl)-phenyl]-5-[1-(1-oxetan-3-yl-piperidin-4-yl)-1H-pyrazol-4-yl]-pyrimidine]	100 to 1000 nM
Cn1cc(-c2cccc(-c3ncc(-c4cnn([C@H]5CCC[C@@H](N6CCOC6=O)C5)c4)cn3)c2)cn1 (relative stereo) [Example 257, 3-[cis-3-(4-{2-[3-(1-Methyl-1H-pyrazol-4-yl)-phenyl]-pyrimidin-5-yl}-pyrazol-1-yl)-cyclohexyl]-oxazolidin-2-one]	< 100 nM
OCc1cc(-c2cccc(-c3ncc(-c4cnn(C5CCOCC5)c4)cn3)c2)ccn1 [Example 151, [4-(3-{5-[1-(Tetrahydro-pyran-4-yl)-1H-pyrazol-4-yl]-pyrimidin-2-yl}-phenyl)-pyridin-2-yl]-methanol]	100 to 1000 nM

The remaining lines, values ahead:

IC50	Compound
100 to 1000 nM	COCCCn1cc(-c2cnc(-c3cccc(-c4cnn(C)c4)c3)nc2)cn1 [Example 27, 5-[1-(3-Methoxy-propyl)-1H-pyrazol-4-yl]-2-[3-(1-methyl-1H-pyrazol-4-yl)-phenyl]-pyrimidine]
< 100 nM	CC1COCCC1N1CCC(n2cc(-c3cnc(-c4cccc(-c5cnn(C)c5)c4)nc3)cn2)CC1 (stereo not shown) [Example 275, 2-[3-(1-Methyl-1H-pyrazol-4-yl)-phenyl]-5-{1-[1-(3-methyl-tetrahydro-pyran-4-yl)-piperidin-4-yl]-1H-pyrazol-4-yl}-pyrimidine]
< 100 nM	Cc1cc(-c2cccc(-c3ncc(-c4cnn([C@H]5CC[C@H](CO)CC5)c4)cn3)c2)cnn1 [Example 256, Trans-[4-(4-{2-[3-(6-Methyl-pyridazin-4-yl)-phenyl]-pyrimidin-5-yl}-pyrazol-1-yl)-cyclohexyl]-methanol]
1000 to 5000 nM	Cn1cc(-c2cccc(-c3ncc(-c4cnn(CCC(=O)N5CCCC5)c4)cn3)c2)cn1 [Example 84, 3-(4-{2-[3-(1-Methyl-1H-pyrazol-4-yl)-phenyl]-pyrimidin-5-yl}-pyrazol-1-yl)-1-pyrrolidin-1-yl-propan-1-one]
100 to 1000 nM	Cn1cc(-c2cccc(-c3ncc(-c4cnn([C@H]5CCNC5)c4)cn3)c2)cn1 [Example 125, 2-[3-(1-Methyl-1H-pyrazol-4-yl)-phenyl]-5-((S)-1-pyrrolidin-3-yl-1H-pyrazol-4-yl)-pyrimidine]
< 100 nM	Cn1cc(-c2cccc(-c3ncc(-c4cnn(C5CCCS(=O)(=O)C5)c4)cn3)c2)cn1 (stereo not shown) [Example 177, 5-[1-(1,1-Dioxo-hexahydro-1l6-thiopyran-3-yl)-1H-pyrazol-4-yl]-2-[3-(1-methyl-1H-pyrazol-4-yl)-phenyl]-pyrimidin]
1000 to 5000 nM	NCCCn1cc(-c2cccc(-c3ncc(-c4cnn(CC(=O)N5CCCC5)c4)cn3)c2)cn1 [Example 42, 2-[4-(2-{3-[1-(3-Amino-propyl)-1H-pyrazol-4-yl]-phenyl}-pyrimidin-5-yl)-pyrazol-1-yl]-1-pyrrolidin-1-yl-ethanone hydrochloride]
100 to 1000 nM	CNC(=O)[C@H]1CCC[C@@H](n2cc(-c3cnc(-c4cccc(-c5cnn(C)c5)c4)nc3)cn2)C1 (relative stereo) [Example 180, cis-3-(4-{2-[3-(1-Methyl-1H-pyrazol-4-yl)-phenyl]-pyrimidin-5-yl}-pyrazol-1-yl)-cyclohexanecarboxylic acid methylamide]
< 100 nM	CCC(O)CNC(=O)[C@H]1CC[C@H](n2cc(-c3cnc(-c4cccc(-c5cnn(C)c5)c4)nc3)cn2)CC1 (stereo partly drawn) [Example 203, trans-4-(4-{2-[3-(1-Methyl-1H-pyrazol-4-yl)-phenyl]-pyrimidin-5-yl}-pyrazol-1-yl)-cyclohexanecarboxylic acid (2-hydroxy-butyl)-amide]
100 to 1000 nM	Cn1cc(-c2cccc(-c3ncc(-c4cnn(C5CCN(C(=O)C(F)(F)F)CC5)c4)cn3)c2)cn1 [Example 4, 2,2,2-Trifluoro-1-[4-(4-{2-[3-(1-methyl-1H-pyrazol-4-yl)-phenyl]-pyrimidin-5-yl}-pyrazol-1-yl)-piperidin-1-yl]-ethanone]
100 to 1000 nM	Cn1cc(-c2cccc(-c3ncc(-c4cnn(C5COC5)c4)cn3)c2)cn1 [Example 141, 2-[3-(1-Methyl-1H-pyrazol-4-yl)-phenyl]-5-(1-oxetan-3-yl-1H-pyrazol-4-yl)-pyrimidine]
1000 to 5000 nM	NCCn1cc(-c2cccc(-c3ncc(-c4cnn(CC(=O)N5CCCC5)c4)cn3)c2)cn1 [Example 50, 2-[4-(2-{3-[1-(2-Amino-ethyl)-1H-pyrazol-4-yl]-phenyl}-pyrimidin-5-yl)-pyrazol-1-yl]-1-pyrrolidin-1-yl-ethanone hydrochloride]
100 to 1000 nM	CN1[C@@H]2CCC[C@H]1C[C@H](n1cc(-c3cnc(-c4cccc(-c5cnn(C)c5)c4)nc3)cn1)C2 [Example 142, Exo-9-Methyl-3-(4-{2-[3-(1-methyl-1H-pyrazol-4-yl)-phenyl]-pyrimidin-5-yl}-pyrazol-1-yl)-9-aza-bicyclo[3.3.1]nonane]
100 to 1000 nM	CN1CCCC1CCn1cc(-c2cnc(-c3cccc(-c4cnn(C)c4)c3)nc2)cn1 (stereo not shown) [Example 64, 2-[3-(1-Methyl-1H-pyrazol-4-yl)-phenyl]-5-{1-[2-(1-methyl-pyrrolidin-2-yl)-ethyl]-1H-pyrazol-4-yl}-pyrimidine]
100 to 1000 nM	CC1COCCN1C(=O)Cn1cc(-c2cnc(-c3cccc(-c4cnn(C)c4)c3)nc2)cn1 (stereo not shown) [Example 147, 1-(3-Methyl-morpholin-4-yl)-2-(4-{2-[3-(1-methyl-1H-pyrazol-4-yl)-phenyl]-pyrimidin-5-yl}-pyrazol-1-yl)-ethanone]
100 to 1000 nM	Cn1cc(-c2cccc(-c3ncc(-c4cnn(CCN5CCOCC5)c4)cn3)c2)cn1 [Example 10, 4-[2-(4-{2-[3-(1-Methyl-1H-pyrazol-4-yl)-phenyl]-pyrimidin-5-yl}-pyrazol-1-yl)-ethyl]-morpholine]
